In publication PMC8595825 (Journal of medicinal chemistry, 2021):

Tested on: M. tuberculosis H37Rv
Assay type: cell-based, Mycobacterium tuberculosis H37Rv
Settings: 1× to 8× MIC90, 8 weeks, 3 × 10^8 cells

SMILES: CCCCCCCCn1c2c([n+](CCCC)c1C)C(=O)c1ccccc1C2=O.[Br-] [compound 32]
- spontaneous mutation frequency: < 3 × 10^−9 /CFU

SMILES: CCCCCCCn1c2c([n+](CCCCC)c1C)C(=O)c1ccccc1C2=O.[Br-] [compound 48]
- spontaneous mutation frequency: < 3 × 10^−9 /CFU
